Patent US11958832B1, “2-alkoxy[4,3:6,3-terpyridine]-3-carbonitriles as antimicrobial compounds” (KING FAISAL UNIVERSITY, priority 2023, dated 2024)

Columns and labels:
Assay type in all cases: cell-based
Escherichia coli = test: Agar plate disc-diffusion, antibacterial inhibition zone; conditions: nutrient agar, 37° C., 48 hours, DMSO zone subtracted; for inhibition zone, Escherichia coli, A: A = concentration of comp. = 10,000 μL; for inhibition zone, Escherichia coli, B: B = concentration of comp. = 30,000 μL; for inhibition zone, Escherichia coli, C: C = concentration of comp. = 50,000 μL
Method: (§1) The agar plate disc-diffusion method was applied. Sterilized filter papers (6 mm in diameter) were wetted with 10 μL of a solution of compounds 2-ethoxy[4,3:6,3-terpyridine]-3-carbonitrile 4 and/or 2-methoxy[4,3:6,3-terpyridine]-3-carbonitrile 5 to be tested, […], and the discs were allowed to air dry. The discs were then placed onto the surface of agar plates (nutrient agar for bacteria and Sabouraud's dextrose agar for fungi) seeded with the test organism. Each plate contained 15 mL of the agar medium, previously seeded with 0.2 mL of the broth culture of each organism pregrown for 18 h. The plates were incubated at 37° C. for 48 hours, and 72 hours for fungi. The inhibition zones were measured in mm. Discs impregnated with DMSO were used as a control, and its inhibition zone was subtracted from the tested compound actual inhibition zone.

Bacillus cereus = test: as above; conditions: nutrient agar, 37° C., 48 hours, DMSO zone subtracted; for inhibition zone, Bacillus Cereus, A: A = concentration of comp. = 10,000 μL; for inhibition zone, Bacillus Cereus, B: B = concentration of comp. = 30,000 μL; for inhibition zone, Bacillus Cereus, C: C = concentration of comp. = 50,000 μL
Method: as §1

Pseudomonas aeruginosa = test: as above; conditions: nutrient agar, 37° C., 48 hours, DMSO zone subtracted; for inhibition zone, Pseudomonas aeruginosa, A: A = concentration of comp. = 10,000 μL; for inhibition zone, Pseudomonas aeruginosa, B: B = concentration of comp. = 30,000 μL; for inhibition zone, Pseudomonas aeruginosa, C: C = concentration of comp. = 50,000 μL
Method: as §1

Aspergillus flavus = test: Agar plate disc-diffusion, antifungal inhibition zone; conditions: Sabouraud's dextrose agar, 37° C., 72 hours, DMSO zone subtracted; for inhibition zone, Aspergillus flavus, A: A = concentration of comp. = 10,000 μL; for inhibition zone, Aspergillus flavus, B: B = concentration of comp. = 30,000 μL; for inhibition zone, Aspergillus flavus, C: C = concentration of comp. = 50,000 μL
Method: as §1

[1] = test system: Chrysosporium keratinophilum; test: as above; conditions: Sabouraud's dextrose agar, 37° C., 72 hours, DMSO zone subtracted; for inhibition zone, Chrysosporium keratinophilum, A: A = concentration of comp. = 10,000 μL; for inhibition zone, Chrysosporium keratinophilum, B: B = concentration of comp. = 30,000 μL; for inhibition zone, Chrysosporium keratinophilum, C: C = concentration of comp. = 50,000 μL
Method: as §1

Staphylococcus aureus = test: Agar plate disc-diffusion, antibacterial inhibition zone; conditions: nutrient agar, 37° C., 48 hours, DMSO zone subtracted; for inhibition zone, Staphylococcus aureus, A: A = concentration of comp. = 10,000 μL; for inhibition zone, Staphylococcus aureus, B: B = concentration of comp. = 30,000 μL; for inhibition zone, Staphylococcus aureus, C: C = concentration of comp. = 50,000 μL
Method: The agar plate disc-diffusion method was applied. […] The discs were then placed onto the surface of agar plates (nutrient agar for bacteria and Sabouraud's dextrose agar for fungi) seeded with the test organism. Each plate contained 15 mL of the agar medium, previously seeded with 0.2 mL of the broth culture of each organism pregrown for 18 h. The plates were incubated at 37° C. for 48 hours, and 72 hours for fungi. The inhibition zones were measured in mm. Discs impregnated with DMSO were used as a control, and its inhibition zone was subtracted from the tested compound actual inhibition zone.

Row | SMILES | inhibition zone, Escherichia coli, A (Escherichia coli) [mm] | inhibition zone, Escherichia coli, B (Escherichia coli) [mm] | inhibition zone, Escherichia coli, C (Escherichia coli) [mm] | inhibition zone, Bacillus Cereus, A (Bacillus cereus) [mm] | inhibition zone, Bacillus Cereus, B (Bacillus cereus) [mm] | inhibition zone, Bacillus Cereus, C (Bacillus cereus) [mm] | inhibition zone, Pseudomonas aeruginosa, A (Pseudomonas aeruginosa) [mm] | inhibition zone, Pseudomonas aeruginosa, B (Pseudomonas aeruginosa) [mm] | inhibition zone, Pseudomonas aeruginosa, C (Pseudomonas aeruginosa) [mm] | inhibition zone, Aspergillus flavus, A (Aspergillus flavus) [mm] | inhibition zone, Aspergillus flavus, B (Aspergillus flavus) [mm] | inhibition zone, Aspergillus flavus, C (Aspergillus flavus) [mm] | inhibition zone, Chrysosporium keratinophilum, A [1] [mm] | inhibition zone, Chrysosporium keratinophilum, B [1] [mm] | inhibition zone, Chrysosporium keratinophilum, C [1] [mm] | inhibition zone, Staphylococcus aureus, A (Staphylococcus aureus) [mm] | inhibition zone, Staphylococcus aureus, B (Staphylococcus aureus) [mm] | inhibition zone, Staphylococcus aureus, C (Staphylococcus aureus) [mm]
1 | CCOc1nc(-c2cccnc2)cc(-c2cccnc2)c1C#N [Compound 4, 2-ethoxy[4,3:6,3-terpyridine]-3-carbonitrile] | 27 | 37 | 48 | 24 | 27 | 35 | 24 | 29 | 39 | 21 | 25 | 35 | 24 | 27 | 40 | 18 | 22 | 34
2 | COc1nc(-c2cccnc2)cc(-c2cccnc2)c1C#N [Compound 5, 2-methoxy[4,3:6,3-terpyridine]-3-carbonitrile] | 28 | 38 | 50 | 26 | 28 | 38 | 24 | 32 | 38 | 25 | 27 | 38 | 27 | 29 | 48 | 19 | 28 | 34
